Reference: patent publication US20100292231A1, “Indazole Compounds for Treating Inflammatory Disorders, Demyelinating Disorders and Cancers” (priority 2007, published 2010)
Read-outs that look alike come from different tables or passages of the source.

How the values were obtained:
Test in all cases: SelectScreen kinase specificity survey
Assay type in all cases: biochemical
AURKA (Aurora A) = target: T1, AURKA (Aurora A) (Homo sapiens, UniProt O14965); conditions: estimated, abridged dose response curve, read-out: Kinase inhibitory activity EC50
T1 construct: purchased Invitrogen, Inc. (SelectScreen service)
How it was run: (§1)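 EC50 values are estimates from an abridged dose-response curve fitted to a 4-parameter Hill sigmoid. Compound was titrated in 5 increments against each kinase, which was paired with a unique substrate and optical reporter in 100 micromolar ATP.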

CAMK1D (CaMKI delta) = target: T2, CAMK1D (CaMKI delta) (Homo sapiens, UniProt Q8IU85); conditions: estimated, abridged dose response curve, read-out: Kinase inhibitory activity EC50
T2 construct: purchased Invitrogen, Inc. (SelectScreen platform)
How it was run: as §1

CLK2 = target: T3, CLK2 (Homo sapiens, UniProt P49760); conditions: estimated, abridged dose response curve, read-out: Kinase inhibitory activity EC50
T3 construct: purchased Invitrogen (SelectScreen platform)
How it was run: as §1

CSF1R (FMS) = target: T4, CSF1R (FMS) (Homo sapiens, UniProt P07333); conditions: estimated, abridged dose response curve, read-out: Kinase inhibitory activity EC50
T4 construct: purchased Invitrogen (SelectScreen platform)
How it was run: as §1

CSNK1E (CK1 epsilon) = target: T5, CSNK1E (CK1 epsilon) (Homo sapiens, UniProt P49674); conditions: estimated, abridged dose response curve, read-out: Kinase inhibitory activity EC50
T5 construct: purchased Invitrogen (SelectScreen platform)
How it was run: as §1

CSNK2A2 (CK2 alpha 2) = target: T6, CSNK2A2 (CK2 alpha 2) (Homo sapiens, UniProt P19784); conditions: estimated, abridged dose response curve, read-out: Kinase inhibitory activity EC50
T6 construct: purchased Invitrogen, Inc. (SelectScreen service)
How it was run: as §1

DYRK4 = target: T7, DYRK4 (Homo sapiens, UniProt Q9NR20)
T7 construct: purchased Invitrogen (SelectScreen platform)
How it was run: as §1

ERBB4 (HER4) = target: T8, ERBB4 (HER4) (Homo sapiens, UniProt Q15303); conditions: estimated, abridged dose response curve, read-out: Kinase inhibitory activity EC50
T8 construct: purchased Invitrogen (SelectScreen service)
T8 sequence (Q15303 26-1308): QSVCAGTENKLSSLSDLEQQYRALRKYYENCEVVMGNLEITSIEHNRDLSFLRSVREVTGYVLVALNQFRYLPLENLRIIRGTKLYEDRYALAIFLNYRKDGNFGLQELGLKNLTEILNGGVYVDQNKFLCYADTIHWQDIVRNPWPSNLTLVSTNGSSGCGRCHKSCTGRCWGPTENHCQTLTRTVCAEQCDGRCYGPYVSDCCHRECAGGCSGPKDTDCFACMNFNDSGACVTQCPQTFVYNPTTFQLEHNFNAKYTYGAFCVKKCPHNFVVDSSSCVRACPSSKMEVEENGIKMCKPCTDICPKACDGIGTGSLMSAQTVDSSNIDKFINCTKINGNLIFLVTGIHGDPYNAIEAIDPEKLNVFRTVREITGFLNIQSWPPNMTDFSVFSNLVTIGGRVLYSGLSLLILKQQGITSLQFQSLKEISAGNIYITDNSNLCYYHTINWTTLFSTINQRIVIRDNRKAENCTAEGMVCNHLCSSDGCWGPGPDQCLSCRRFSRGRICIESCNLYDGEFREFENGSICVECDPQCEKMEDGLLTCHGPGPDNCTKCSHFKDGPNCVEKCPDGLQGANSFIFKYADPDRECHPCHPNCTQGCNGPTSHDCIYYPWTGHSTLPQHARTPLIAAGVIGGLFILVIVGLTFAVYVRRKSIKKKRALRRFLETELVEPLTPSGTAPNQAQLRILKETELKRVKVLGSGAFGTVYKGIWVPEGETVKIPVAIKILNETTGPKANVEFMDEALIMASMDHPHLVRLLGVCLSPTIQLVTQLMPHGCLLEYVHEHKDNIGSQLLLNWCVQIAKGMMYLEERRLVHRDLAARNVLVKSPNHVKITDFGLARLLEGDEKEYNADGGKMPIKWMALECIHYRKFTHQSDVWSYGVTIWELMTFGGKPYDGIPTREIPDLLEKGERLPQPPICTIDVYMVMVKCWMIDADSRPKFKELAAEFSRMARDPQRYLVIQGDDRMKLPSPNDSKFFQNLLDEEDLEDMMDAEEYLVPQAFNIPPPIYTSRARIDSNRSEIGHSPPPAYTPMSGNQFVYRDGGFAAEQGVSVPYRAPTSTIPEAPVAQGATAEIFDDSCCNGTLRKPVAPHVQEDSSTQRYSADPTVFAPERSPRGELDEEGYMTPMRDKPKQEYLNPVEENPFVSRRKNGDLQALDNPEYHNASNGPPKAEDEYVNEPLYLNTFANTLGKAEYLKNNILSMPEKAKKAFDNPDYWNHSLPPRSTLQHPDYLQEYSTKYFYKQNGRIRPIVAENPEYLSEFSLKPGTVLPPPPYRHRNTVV
How it was run: as §1

FYN = target: T9, FYN (Homo sapiens, UniProt P06241); conditions: estimated, abridged dose response curve, read-out: Kinase inhibitory activity EC50
T9 construct: purchased Invitrogen (SelectScreen)
How it was run: as §1

INSR = target: T10, INSR (Homo sapiens, UniProt P06213); conditions: estimated, abridged dose response curve, read-out: Kinase inhibitory activity EC50
T10 construct: purchased Invitrogen (SelectScreen platform)
How it was run: as §1

LYN A = target: T11, LYN A (Homo sapiens, UniProt P07948); conditions: estimated, abridged dose response curve, read-out: Kinase inhibitory activity EC50
T11 construct: purchased Invitrogen (SelectScreen)
T11 sequence (P07948 whole entry): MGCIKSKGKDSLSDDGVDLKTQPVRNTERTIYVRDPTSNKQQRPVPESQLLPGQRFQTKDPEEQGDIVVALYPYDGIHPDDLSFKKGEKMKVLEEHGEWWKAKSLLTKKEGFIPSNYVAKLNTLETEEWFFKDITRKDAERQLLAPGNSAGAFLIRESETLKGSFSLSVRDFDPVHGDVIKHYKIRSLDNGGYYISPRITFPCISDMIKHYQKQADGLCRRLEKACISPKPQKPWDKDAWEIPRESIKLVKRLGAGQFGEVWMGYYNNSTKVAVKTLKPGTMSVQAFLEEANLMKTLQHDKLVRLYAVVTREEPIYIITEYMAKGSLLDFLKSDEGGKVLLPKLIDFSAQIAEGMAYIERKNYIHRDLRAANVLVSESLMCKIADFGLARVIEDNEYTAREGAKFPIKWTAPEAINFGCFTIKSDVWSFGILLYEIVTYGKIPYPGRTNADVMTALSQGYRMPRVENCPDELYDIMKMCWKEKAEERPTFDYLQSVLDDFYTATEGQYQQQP
How it was run: as §1

MAPK9 (JNK2) = target: T12, MAPK9 (JNK2) (Homo sapiens, UniProt P45984); conditions: estimated, abridged dose response curve, read-out: Kinase inhibitory activity EC50
T12 construct: purchased Invitrogen, Inc. (SelectScreen service)
How it was run: as §1

MAPKAPK5 (PRAK) = target: T13, MAPKAPK5 (PRAK) (Homo sapiens, UniProt Q8IW41); conditions: estimated, abridged dose response curve, read-out: Kinase inhibitory activity EC50
T13 construct: purchased Invitrogen, Inc. (SelectScreen platform)
T13 sequence (Q8IW41 whole entry): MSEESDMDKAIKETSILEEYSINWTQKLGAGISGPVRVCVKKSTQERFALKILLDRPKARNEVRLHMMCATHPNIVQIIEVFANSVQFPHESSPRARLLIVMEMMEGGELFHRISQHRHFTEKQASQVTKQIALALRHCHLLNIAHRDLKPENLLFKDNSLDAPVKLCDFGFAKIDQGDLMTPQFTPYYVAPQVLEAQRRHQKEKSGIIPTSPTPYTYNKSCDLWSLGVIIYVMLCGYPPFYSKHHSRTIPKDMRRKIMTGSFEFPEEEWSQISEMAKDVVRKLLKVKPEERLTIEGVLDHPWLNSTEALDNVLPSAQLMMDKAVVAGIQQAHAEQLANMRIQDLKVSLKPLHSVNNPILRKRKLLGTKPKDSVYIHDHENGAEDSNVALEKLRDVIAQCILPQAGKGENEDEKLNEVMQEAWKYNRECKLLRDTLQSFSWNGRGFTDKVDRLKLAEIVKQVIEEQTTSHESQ
How it was run: as §1

MARK1 (MARK) = target: T14, MARK1 (MARK) (Homo sapiens, UniProt Q9P0L2); conditions: estimated, abridged dose response curve, read-out: Kinase inhibitory activity EC50
T14 construct: purchased Invitrogen, Inc. (SelectScreen platform)
T14 sequence (Q9P0L2 whole entry): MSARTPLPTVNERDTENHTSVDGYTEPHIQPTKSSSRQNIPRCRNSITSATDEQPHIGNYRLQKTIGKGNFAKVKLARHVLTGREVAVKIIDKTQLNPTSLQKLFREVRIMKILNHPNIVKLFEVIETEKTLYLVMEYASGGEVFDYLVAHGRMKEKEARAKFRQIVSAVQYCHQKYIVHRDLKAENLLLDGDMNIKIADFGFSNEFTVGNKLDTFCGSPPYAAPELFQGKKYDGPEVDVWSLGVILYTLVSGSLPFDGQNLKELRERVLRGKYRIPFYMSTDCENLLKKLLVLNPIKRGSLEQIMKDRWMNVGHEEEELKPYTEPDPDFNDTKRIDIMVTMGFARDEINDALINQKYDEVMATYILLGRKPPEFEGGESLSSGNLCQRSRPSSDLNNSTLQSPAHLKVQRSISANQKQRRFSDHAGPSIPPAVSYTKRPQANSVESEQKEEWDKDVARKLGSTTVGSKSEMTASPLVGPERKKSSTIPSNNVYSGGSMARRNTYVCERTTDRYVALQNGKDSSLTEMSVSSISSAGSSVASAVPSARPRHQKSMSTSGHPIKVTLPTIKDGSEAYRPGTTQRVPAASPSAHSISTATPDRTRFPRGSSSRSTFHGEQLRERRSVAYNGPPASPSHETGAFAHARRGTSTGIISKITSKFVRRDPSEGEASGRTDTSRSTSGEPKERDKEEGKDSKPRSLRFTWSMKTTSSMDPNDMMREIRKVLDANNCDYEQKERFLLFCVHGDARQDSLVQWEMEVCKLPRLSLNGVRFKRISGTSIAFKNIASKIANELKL
How it was run: as §1

NEK2 = target: T15, NEK2 (Homo sapiens, UniProt P51955); conditions: estimated, abridged dose response curve, read-out: Kinase inhibitory activity EC50
T15 construct: purchased Invitrogen, Inc. (SelectScreen service)
How it was run: as §1

PAK7 (KIAA1264, PAK5) = target: T16, PAK7 (KIAA1264, PAK5) (Homo sapiens, UniProt Q9P286); conditions: estimated, abridged dose response curve, read-out: Kinase inhibitory activity EC50
T16 construct: purchased Invitrogen (SelectScreen platform)
How it was run: as §1

PIM2 = target: T17, PIM2 (Homo sapiens, UniProt Q9P1W9); conditions: estimated, abridged dose response curve, read-out: Kinase inhibitory activity EC50
T17 construct: purchased Invitrogen, Inc. (SelectScreen platform)
T17 sequence (Q9P1W9 whole entry): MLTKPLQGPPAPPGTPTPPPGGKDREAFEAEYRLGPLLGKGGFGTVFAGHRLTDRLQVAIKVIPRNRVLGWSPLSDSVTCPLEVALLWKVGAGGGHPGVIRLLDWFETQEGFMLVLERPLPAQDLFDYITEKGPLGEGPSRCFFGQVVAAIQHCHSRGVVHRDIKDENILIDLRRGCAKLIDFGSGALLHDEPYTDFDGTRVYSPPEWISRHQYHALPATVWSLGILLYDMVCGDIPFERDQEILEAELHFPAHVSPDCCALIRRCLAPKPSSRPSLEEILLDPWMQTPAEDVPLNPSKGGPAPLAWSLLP
How it was run: as §1

PRKCE (PKC epsilon) = target: T18, PRKCE (PKC epsilon) (Homo sapiens, UniProt Q02156); conditions: estimated, abridged dose response curve, read-out: Kinase inhibitory activity EC50
T18 construct: purchased Invitrogen, Inc. (SelectScreen platform)
T18 sequence (Q02156 whole entry): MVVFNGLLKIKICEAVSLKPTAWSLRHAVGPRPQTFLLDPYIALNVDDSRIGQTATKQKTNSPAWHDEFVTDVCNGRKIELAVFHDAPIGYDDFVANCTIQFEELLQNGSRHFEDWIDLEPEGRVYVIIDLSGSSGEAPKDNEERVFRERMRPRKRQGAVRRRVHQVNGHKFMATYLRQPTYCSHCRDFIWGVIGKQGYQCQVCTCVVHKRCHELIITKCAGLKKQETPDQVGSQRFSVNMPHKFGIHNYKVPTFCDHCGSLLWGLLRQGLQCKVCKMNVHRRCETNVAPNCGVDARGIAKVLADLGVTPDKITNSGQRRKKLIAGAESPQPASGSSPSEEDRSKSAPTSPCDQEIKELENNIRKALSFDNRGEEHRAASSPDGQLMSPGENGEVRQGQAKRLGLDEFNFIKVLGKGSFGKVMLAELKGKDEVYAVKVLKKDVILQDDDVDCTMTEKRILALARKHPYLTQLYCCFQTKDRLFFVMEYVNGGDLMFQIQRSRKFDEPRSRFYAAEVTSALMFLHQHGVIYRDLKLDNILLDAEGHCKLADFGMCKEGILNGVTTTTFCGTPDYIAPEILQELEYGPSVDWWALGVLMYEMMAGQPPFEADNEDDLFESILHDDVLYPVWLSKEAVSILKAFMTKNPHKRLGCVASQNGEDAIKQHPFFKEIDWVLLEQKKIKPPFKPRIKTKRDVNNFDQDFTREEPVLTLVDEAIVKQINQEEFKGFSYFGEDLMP
How it was run: as §1

PRKCG (PKC gamma) = target: T19, PRKCG (PKC gamma) (Homo sapiens, UniProt P05129); conditions: estimated, abridged dose response curve, read-out: Kinase inhibitory activity EC50
T19 construct: purchased Invitrogen, Inc. (SelectScreen platform)
How it was run: as §1

ROCK1 = target: T20, ROCK1 (Homo sapiens, UniProt Q13464); conditions: estimated, abridged dose response curve, read-out: Kinase inhibitory activity EC50
T20 construct: purchased Invitrogen (SelectScreen platform)
How it was run: as §1

RPS6KA3 (RSK2) = target: T21, RPS6KA3 (RSK2) (Homo sapiens, UniProt P51812); conditions: estimated, abridged dose response curve, read-out: Kinase inhibitory activity EC50
T21 construct: purchased Invitrogen, Inc. (SelectScreen platform)
T21 sequence (P51812 whole entry): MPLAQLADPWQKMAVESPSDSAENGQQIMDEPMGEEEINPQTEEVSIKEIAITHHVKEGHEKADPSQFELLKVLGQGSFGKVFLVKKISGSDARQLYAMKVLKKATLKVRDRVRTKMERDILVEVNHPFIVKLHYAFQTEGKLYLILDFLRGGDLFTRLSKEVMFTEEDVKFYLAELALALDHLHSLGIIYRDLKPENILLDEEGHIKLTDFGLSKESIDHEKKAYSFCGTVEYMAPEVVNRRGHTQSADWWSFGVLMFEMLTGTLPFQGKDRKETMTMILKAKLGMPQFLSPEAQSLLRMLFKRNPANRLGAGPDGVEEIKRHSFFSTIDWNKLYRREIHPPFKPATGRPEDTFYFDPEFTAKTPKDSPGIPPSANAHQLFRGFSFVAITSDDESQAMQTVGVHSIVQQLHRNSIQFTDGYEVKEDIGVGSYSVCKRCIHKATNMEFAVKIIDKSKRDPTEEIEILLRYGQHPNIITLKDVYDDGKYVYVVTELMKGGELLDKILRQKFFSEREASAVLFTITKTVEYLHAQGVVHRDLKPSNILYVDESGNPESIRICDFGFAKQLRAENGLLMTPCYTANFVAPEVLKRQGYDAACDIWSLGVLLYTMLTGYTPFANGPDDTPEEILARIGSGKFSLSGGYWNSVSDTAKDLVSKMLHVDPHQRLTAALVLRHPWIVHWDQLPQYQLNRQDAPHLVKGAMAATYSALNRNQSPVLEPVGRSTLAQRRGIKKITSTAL
How it was run: as §1

RPS6KA6 (RSK4) = target: T22, RPS6KA6 (RSK4) (Homo sapiens, UniProt Q9UK32); conditions: estimated, abridged dose response curve, read-out: Kinase inhibitory activity EC50
T22 construct: purchased Invitrogen, Inc. (SelectScreen platform)
How it was run: as §1

SRMS (Srm) = target: T23, SRMS (Srm) (Homo sapiens, UniProt Q9H3Y6); conditions: estimated, abridged dose response curve, read-out: Kinase inhibitory activity EC50
T23 construct: purchased Invitrogen (SelectScreen)
How it was run: as §1

STK22D (TSSK1) = target: T24, STK22D (TSSK1) (Homo sapiens, UniProt Q9BXA7); conditions: estimated, abridged dose response curve, read-out: Kinase inhibitory activity EC50
T24 construct: purchased Invitrogen, Inc. (SelectScreen platform)
How it was run: as §1

STK24 (MST3) = target: T25, STK24 (MST3) (Homo sapiens, UniProt Q9Y6E0); conditions: estimated, abridged dose response curve, read-out: Kinase inhibitory activity EC50
T25 construct: purchased Invitrogen (SelectScreen platform)
How it was run: as §1

TBK1 = target: T26, TBK1 (Homo sapiens, UniProt Q9UHD2); conditions: estimated, abridged dose response curve, read-out: Kinase inhibitory activity EC50
T26 construct: purchased Invitrogen, Inc. (SelectScreen service)
How it was run: as §1

ZAP70 = target: T27, ZAP70 (Homo sapiens, UniProt P43403); conditions: estimated, abridged dose response curve, read-out: Kinase inhibitory activity EC50
T27 construct: purchased Invitrogen (SelectScreen)
How it was run: as §1

SMILES | EC50 (AURKA (Aurora A)) | EC50 (CAMK1D (CaMKI delta)) | EC50 (CLK2) | EC50 (CSF1R (FMS)) | EC50 (CSNK1E (CK1 epsilon)) | EC50 (CSNK2A2 (CK2 alpha 2)) | EC50 (ERBB4 (HER4)) | EC50 (FYN) | EC50 (INSR) | EC50 (LYN A) | EC50 (MAPK9 (JNK2)) | EC50 (MAPKAPK5 (PRAK)) | EC50 (MARK1 (MARK)) | EC50 (NEK2) | EC50 (PAK7 (KIAA1264, PAK5)) | EC50 (PIM2) | EC50 (PRKCE (PKC epsilon)) | EC50 (PRKCG (PKC gamma)) | EC50 (ROCK1) | EC50 (RPS6KA3 (RSK2)) | also measured
CN(C)CCCNc1ccc2ncn3c4ccc5[nH]ncc5c4c(=O)c1c23 [Compound (IV)] | > 5 µM | 2.78 µM | 0.055 µM | 0.205 µM | > 5 µM | > 5 µM | > 5 µM | 0.754 µM | 2.4 µM | 0.389 µM | > 5 µM | > 5 µM | > 5 µM | > 5 µM | > 5 µM | > 5 µM | 2.52 µM | > 5 µM | 0.487 µM | 1.49 µM | EC50 (DYRK4; DYRK4, estimated, abridged dose response curve, read-out: Kinase inhibitory activity EC50): > 5 µM; EC50 (RPS6KA6 (RSK4)): 0.655 µM; EC50 (SRMS (Srm)): > 5 µM; EC50 (STK22D (TSSK1)): 2.02 µM; EC50 (STK24 (MST3)): 1.04 µM; EC50 (TBK1): > 5 µM; EC50 (ZAP70): > 5 µM
CCN(CC)CCNc1ccc2ncn3c4ccc(O)cc4c(=O)c1c23 [Symadex, 5-(2-(diethylamino)ethylamino)-8-hydroxy-6H-imidazo[4,5,1-de]acridin-6-one, reference compound] | > 5 µM | 4 µM | 0.315 µM | 0.428 µM | 1.09 µM | 4.8 µM | > 5 µM | > 5 µM | > 5 µM | 0.791 µM | > 5 µM | > 5 µM | 3.19 µM | > 5 µM | > 5 µM | > 5 µM | > 5 µM | 1.89 µM | > 5 µM | 0.692 µM | EC50 (DYRK4): > 5 µM; EC50 (RPS6KA6 (RSK4)): 0.182 µM; EC50 (SRMS (Srm)): > 5 µM; EC50 (STK22D (TSSK1)): 1.95 µM; EC50 (STK24 (MST3)): 0.733 µM; EC50 (TBK1): > 5 µM; EC50 (ZAP70): > 5 µM
